# pEC50: −log10 of the molar value.
# Key:
# Test in all cases: cell-based
# Parameters in all cases: species or system Xenopus laevis oocytes
# [1] = target: Btα1/Btα2/Btα8/Btβ1 nAChR (Bombus terrestris, UniProt A0A9B0BGM1+A0A9B0F4H3+A0A9B2JDZ7+A0A9B2JMX7)
# Amα1/Amα8/Amβ1 nAChR = target: T1, Amα1/Amα8/Amβ1 nAChR (Apis mellifera, UniProt A0A7M7MMZ9+A0A8U0WQ70+A0A8U0WQC0)
# T1 sequence (A0A7M7MMZ9 44-627): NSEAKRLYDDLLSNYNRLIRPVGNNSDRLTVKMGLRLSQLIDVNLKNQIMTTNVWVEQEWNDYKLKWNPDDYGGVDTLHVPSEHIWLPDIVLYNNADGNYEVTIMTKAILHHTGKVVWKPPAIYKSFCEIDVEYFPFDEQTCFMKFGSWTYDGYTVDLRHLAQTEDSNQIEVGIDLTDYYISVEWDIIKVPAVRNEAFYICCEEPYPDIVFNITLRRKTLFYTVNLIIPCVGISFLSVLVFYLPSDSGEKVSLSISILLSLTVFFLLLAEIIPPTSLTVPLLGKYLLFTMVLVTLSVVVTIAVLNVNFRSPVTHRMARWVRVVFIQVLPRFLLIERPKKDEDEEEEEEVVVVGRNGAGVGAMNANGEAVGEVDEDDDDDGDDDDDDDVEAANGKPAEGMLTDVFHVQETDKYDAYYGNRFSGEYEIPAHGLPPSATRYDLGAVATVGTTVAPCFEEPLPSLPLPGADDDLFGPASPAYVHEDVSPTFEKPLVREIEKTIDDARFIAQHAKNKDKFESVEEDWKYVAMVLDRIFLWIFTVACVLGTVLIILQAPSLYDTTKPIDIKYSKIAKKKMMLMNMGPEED
# T1 sequence (A0A8U0WQ70 25-537): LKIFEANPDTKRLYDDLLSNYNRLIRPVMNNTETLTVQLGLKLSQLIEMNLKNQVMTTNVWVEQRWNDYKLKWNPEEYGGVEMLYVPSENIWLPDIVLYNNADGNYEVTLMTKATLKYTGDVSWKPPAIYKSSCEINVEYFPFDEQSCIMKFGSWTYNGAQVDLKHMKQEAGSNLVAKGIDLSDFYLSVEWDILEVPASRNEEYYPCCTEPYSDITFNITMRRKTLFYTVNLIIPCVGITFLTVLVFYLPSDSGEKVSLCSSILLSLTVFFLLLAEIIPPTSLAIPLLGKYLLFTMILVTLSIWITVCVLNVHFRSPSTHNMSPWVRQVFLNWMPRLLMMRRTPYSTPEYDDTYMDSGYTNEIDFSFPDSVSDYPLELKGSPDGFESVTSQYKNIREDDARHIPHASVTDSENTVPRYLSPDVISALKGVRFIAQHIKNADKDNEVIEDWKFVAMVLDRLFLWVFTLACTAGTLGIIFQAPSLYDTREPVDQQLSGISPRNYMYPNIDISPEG
# T1 sequence (A0A8U0WQC0 25-520): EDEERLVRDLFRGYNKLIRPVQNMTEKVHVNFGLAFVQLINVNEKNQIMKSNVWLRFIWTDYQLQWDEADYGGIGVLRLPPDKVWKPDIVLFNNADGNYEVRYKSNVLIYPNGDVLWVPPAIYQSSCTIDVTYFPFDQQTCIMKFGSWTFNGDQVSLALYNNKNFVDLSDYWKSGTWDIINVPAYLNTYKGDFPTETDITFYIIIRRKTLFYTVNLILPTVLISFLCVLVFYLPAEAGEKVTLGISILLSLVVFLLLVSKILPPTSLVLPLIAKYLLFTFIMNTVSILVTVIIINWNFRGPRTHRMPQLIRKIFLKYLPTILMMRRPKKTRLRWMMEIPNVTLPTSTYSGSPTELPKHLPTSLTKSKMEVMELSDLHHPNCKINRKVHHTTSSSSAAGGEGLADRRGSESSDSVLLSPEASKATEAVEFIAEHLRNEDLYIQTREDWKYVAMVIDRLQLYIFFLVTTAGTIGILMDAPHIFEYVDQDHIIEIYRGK
# [2] = target: Amα1/Amα2/Amα8/Amβ1 nAChR (Apis mellifera, UniProt A0A7M7MMZ9+A0A8U0WQ70+A0A8U0WQC0+A0A8U0WQD1)
# Btα1/Btα8/Btβ1 nAChR = target: T2, Btα1/Btα8/Btβ1 nAChR (Bombus terrestris, UniProt A0A9B0BGM1+A0A9B0F4H3+A0A9B2JDZ7)
# T2 sequence (A0A9B0F4H3 44-615): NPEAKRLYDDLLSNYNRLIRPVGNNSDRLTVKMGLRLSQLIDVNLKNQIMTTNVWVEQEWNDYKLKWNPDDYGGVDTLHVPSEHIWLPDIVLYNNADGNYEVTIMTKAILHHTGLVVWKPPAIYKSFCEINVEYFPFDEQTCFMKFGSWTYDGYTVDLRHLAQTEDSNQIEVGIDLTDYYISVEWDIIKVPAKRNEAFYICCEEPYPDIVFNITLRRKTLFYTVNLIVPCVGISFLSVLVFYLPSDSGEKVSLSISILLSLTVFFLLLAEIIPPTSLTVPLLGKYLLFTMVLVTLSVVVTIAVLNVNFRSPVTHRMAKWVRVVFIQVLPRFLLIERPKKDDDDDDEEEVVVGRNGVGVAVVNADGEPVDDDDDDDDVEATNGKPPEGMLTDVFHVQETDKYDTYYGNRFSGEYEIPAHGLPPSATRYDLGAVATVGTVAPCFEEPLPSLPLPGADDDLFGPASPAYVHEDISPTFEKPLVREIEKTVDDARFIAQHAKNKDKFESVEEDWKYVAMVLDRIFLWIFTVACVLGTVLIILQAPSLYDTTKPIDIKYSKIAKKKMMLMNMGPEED
# T2 sequence (A0A9B2JDZ7 22-535): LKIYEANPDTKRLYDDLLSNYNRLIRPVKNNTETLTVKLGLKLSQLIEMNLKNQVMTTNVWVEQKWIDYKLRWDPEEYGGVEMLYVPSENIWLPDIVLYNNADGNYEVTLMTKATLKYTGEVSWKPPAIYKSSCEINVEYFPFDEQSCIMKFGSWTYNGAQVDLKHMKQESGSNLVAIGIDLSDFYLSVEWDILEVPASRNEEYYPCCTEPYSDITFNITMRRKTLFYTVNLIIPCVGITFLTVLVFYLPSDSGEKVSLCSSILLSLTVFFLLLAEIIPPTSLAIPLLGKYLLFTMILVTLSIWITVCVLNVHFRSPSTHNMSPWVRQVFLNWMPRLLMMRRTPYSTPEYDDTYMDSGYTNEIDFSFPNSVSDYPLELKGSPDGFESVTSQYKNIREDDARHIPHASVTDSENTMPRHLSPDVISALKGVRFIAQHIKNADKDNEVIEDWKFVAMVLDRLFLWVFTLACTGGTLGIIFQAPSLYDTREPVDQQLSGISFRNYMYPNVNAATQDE
# T2 sequence (A0A9B0BGM1 19-519): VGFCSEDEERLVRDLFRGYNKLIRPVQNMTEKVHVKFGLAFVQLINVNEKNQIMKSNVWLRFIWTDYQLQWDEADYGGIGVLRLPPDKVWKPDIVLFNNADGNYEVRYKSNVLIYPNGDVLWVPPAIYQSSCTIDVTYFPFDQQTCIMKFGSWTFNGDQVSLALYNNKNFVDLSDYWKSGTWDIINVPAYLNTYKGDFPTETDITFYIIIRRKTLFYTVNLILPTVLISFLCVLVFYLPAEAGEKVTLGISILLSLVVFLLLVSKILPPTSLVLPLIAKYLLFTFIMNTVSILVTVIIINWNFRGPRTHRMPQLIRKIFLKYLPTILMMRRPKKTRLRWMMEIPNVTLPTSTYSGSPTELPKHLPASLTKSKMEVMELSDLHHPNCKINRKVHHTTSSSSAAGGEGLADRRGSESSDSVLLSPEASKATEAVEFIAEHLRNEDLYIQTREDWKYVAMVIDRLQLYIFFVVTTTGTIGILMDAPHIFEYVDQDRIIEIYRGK
# Sequence of Amα1/Amα2/Amα8/Amβ1 nAChR (A0A8U0WQD1 18-541, one chain of several): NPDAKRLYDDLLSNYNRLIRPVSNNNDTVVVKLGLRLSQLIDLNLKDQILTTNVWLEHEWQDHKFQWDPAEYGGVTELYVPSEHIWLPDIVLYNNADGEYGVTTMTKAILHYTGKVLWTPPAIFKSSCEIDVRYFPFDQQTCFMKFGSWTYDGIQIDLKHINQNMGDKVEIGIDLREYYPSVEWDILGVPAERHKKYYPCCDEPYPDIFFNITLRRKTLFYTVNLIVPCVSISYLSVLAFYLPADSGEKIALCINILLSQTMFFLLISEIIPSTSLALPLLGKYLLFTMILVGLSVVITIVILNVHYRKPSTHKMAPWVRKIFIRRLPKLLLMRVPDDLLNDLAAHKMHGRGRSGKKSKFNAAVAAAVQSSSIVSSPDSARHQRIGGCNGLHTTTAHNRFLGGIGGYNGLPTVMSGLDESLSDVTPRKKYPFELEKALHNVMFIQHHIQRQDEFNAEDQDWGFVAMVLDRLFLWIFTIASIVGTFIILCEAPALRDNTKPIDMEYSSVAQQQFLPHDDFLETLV
# Sequence of Btα1/Btα2/Btα8/Btβ1 nAChR (A0A9B2JMX7 18-544, one chain of several): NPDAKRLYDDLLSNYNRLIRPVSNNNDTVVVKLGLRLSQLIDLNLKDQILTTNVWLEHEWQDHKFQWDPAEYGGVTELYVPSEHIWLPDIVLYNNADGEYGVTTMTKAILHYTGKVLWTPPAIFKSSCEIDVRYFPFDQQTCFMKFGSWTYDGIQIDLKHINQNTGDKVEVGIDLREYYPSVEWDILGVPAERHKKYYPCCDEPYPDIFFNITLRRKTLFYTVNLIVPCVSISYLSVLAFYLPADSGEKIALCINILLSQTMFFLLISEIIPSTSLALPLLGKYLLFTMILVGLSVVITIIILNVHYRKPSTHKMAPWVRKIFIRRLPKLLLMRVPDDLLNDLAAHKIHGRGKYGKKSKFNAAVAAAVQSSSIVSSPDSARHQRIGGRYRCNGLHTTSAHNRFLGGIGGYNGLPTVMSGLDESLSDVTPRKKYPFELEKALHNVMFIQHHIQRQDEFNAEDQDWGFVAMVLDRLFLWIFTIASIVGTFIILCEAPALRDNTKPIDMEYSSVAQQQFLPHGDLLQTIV
smiles,measurement,setting,value
CC(=O)OCC[N+](C)(C)C [Acetylcholine],pEC50,[1],5.66
same,pEC50,Amα1/Amα8/Amβ1 nAChR,5.94
same,pEC50,[2],5.72
same,pEC50,Btα1/Btα8/Btβ1 nAChR,5.80
